ChEMBL document CHEMBL4024706 (Eur J Med Chem, 2017)

How the values were obtained:
[1] = biological target: Ephrin type-A receptor 5 (Homo sapiens) (UniProt P54756); assay: Inhibition of wild-type human partial length EPHA5 (T627 to V930 residues) expressed in bacterial expression system assessed as residual activity at 1 uM by Kinomescan method relative to control
[2] = biological target: Phosphatidylinositol 4-kinase beta (Homo sapiens) (UniProt Q9UBF8); assay: Inhibition of wild-type human full length PIK4CB (M1 to M828 residues) expressed in mammalian expression system assessed as residual activity at 1 uM by Kinomescan method relative to control
Pfeiffer = assay: Growth inhibition of human Pfeiffer cells; assay type: functional; details: Homo sapiens, Pfeiffer
[3] = biological target: Mitogen-activated protein kinase kinase kinase 11 (Homo sapiens) (UniProt Q16584); assay: Inhibition of wild-type human partial length MLK3 (I77 to W399 residues) expressed in bacterial expression system assessed as residual activity at 1 uM by Kinomescan method relative to control
[4] = biological target: Protein kinase C eta type (Homo sapiens) (UniProt P24723); assay: Inhibition of wild-type human partial length PRKCH (S324 to P683 residues) expressed in bacterial expression system assessed as residual activity at 1 uM by Kinomescan method relative to control
[5] = biological target: Receptor tyrosine-protein kinase erbB-4 (Homo sapiens) (UniProt Q15303); assay: Inhibition of wild-type human partial length ERBB4 (L690 to K994 residues) expressed in bacterial expression system assessed as residual activity at 1 uM by Kinomescan method relative to control
[6] = system: Mast/stem cell growth factor receptor Kit (Homo sapiens), P10721 [UNDEFINED MUTATION]; assay: Inhibition of human partial length KIT V559D/V654 double mutant (Y545 to D952 residues) expressed in bacterial expression system assessed as residual activity at 1 uM by Kinomescan method relative to control
Mast/stem cell growth factor receptor Kit (Homo sapiens), P10721 [UNDEFINED MUTATION], sequence (P10721 whole entry, looked up, stated change not applied, the tested form may be a part): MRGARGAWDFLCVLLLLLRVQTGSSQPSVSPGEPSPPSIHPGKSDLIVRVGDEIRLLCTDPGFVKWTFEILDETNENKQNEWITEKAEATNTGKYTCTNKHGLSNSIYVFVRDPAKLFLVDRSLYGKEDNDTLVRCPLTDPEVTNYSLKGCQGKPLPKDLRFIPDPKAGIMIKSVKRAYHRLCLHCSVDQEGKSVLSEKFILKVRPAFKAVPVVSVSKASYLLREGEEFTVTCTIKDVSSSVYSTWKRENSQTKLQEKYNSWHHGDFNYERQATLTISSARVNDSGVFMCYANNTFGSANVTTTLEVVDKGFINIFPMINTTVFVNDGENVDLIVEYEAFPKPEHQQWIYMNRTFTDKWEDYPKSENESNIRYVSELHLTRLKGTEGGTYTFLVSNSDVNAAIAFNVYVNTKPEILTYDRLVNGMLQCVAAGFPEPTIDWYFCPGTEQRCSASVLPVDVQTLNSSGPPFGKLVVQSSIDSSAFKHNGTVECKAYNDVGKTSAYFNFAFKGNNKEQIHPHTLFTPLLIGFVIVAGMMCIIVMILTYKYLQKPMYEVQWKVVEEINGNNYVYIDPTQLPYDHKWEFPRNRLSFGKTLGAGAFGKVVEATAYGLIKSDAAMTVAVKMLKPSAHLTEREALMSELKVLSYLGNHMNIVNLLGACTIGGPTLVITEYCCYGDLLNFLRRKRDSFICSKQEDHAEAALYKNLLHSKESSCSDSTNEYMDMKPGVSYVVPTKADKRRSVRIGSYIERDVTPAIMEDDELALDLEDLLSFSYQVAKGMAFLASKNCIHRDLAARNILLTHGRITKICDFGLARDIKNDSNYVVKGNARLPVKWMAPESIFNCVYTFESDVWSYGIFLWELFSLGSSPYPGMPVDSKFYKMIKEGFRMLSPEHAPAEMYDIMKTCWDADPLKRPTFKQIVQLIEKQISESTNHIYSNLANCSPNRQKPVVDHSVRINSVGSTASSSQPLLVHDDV

[7] = biological target: Ephrin type-A receptor 4 (Homo sapiens) (UniProt P54764); assay: Inhibition of wild-type human partial length EPHA4 (T601 to R897 residues) expressed in bacterial expression system assessed as residual activity at 1 uM by Kinomescan method relative to control
[8] = biological target: STE20-like serine/threonine-protein kinase (Homo sapiens) (UniProt Q9H2G2); assay: Inhibition of wild-type human partial length SLK (S14 to A307 residues) expressed in bacterial expression system assessed as residual activity at 1 uM by Kinomescan method relative to control
[9] = biological target: SRSF protein kinase 1 (Homo sapiens) (UniProt Q96SB4); assay: Inhibition of wild-type human full length SRPK1 (M1 to S655 residues) expressed in bacterial expression system assessed as residual activity at 1 uM by Kinomescan method relative to control
[10] = biological target: Citron Rho-interacting kinase (Homo sapiens) (UniProt O14578); assay: Inhibition of wild-type human partial length CIT (M68 to E432 residues) expressed in bacterial expression system assessed as residual activity at 1 uM by Kinomescan method relative to control
Citron Rho-interacting kinase (Homo sapiens), sequence (O14578 whole entry, the tested form may be a part): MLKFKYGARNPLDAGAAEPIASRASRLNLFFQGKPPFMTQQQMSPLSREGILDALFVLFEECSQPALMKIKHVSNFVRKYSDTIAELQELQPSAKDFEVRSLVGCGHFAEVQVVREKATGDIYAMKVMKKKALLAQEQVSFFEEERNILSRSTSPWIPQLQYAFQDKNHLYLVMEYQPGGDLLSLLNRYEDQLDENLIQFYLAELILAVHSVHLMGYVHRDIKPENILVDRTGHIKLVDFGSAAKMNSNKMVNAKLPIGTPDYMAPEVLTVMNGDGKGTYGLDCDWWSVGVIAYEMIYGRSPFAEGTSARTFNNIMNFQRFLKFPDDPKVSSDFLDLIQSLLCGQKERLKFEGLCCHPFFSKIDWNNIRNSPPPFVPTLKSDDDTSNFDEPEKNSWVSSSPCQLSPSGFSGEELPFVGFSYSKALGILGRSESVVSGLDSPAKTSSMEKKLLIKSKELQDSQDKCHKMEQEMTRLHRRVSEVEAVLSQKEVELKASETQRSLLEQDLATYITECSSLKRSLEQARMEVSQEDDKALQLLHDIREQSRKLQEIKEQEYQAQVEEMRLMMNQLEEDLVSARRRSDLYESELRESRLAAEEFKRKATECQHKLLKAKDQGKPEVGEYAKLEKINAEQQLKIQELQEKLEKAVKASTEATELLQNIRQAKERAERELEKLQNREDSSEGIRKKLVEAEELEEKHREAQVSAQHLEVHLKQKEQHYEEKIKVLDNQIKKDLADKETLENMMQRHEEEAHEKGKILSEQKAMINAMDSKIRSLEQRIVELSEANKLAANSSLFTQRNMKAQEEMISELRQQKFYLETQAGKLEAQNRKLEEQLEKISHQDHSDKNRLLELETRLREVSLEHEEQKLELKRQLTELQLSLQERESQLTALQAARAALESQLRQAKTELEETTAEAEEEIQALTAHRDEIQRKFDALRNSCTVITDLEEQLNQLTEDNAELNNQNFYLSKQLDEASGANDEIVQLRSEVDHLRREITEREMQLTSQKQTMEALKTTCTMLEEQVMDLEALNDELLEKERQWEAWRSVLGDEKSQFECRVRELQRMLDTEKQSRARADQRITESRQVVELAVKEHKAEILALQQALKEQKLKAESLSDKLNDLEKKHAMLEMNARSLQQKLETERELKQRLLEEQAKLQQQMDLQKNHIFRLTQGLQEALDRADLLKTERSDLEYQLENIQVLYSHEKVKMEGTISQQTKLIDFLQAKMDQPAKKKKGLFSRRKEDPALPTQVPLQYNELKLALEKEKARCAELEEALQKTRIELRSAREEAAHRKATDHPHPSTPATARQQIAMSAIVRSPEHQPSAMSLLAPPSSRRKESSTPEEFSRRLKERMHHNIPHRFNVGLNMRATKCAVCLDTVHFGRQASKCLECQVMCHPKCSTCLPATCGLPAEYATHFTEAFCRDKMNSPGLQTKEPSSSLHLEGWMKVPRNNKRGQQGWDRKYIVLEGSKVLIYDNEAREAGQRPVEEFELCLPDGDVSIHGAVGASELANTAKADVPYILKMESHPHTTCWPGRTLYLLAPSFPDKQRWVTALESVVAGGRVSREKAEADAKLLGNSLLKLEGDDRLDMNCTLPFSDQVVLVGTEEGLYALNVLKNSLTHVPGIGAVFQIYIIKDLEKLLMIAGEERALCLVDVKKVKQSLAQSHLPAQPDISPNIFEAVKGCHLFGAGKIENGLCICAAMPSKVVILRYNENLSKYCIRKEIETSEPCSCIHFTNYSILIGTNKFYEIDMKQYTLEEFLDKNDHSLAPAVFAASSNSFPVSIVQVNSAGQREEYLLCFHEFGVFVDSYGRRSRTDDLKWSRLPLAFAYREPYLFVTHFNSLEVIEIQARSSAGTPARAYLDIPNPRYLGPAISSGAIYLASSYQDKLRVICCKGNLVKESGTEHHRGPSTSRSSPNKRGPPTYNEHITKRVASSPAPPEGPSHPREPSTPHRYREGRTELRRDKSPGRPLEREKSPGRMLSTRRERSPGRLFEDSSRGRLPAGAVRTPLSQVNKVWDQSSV

[11] = biological target: cAMP-dependent protein kinase catalytic subunit beta (Homo sapiens) (UniProt P22694); assay: Inhibition of wild-type human full length PKAC-beta (M1 to F351 residues) expressed in bacterial expression system assessed as residual activity at 1 uM by Kinomescan method relative to control
[12] = biological target: Serine/threonine-protein kinase MARK2 (Homo sapiens) (UniProt Q7KZI7); assay: Inhibition of wild-type human partial length MARK2 (M1 to R450 residues) expressed in bacterial expression system assessed as residual activity at 1 uM by Kinomescan method relative to control
[13] = AUC (0 to infinity) in Sprague-Dawley rat at 10 mg/kg, po by LC-MS/MS method; assay type: ADME, organism-based; set-up: dose 10 mg/kg, route oral, time infinity; details: in vivo
[14] = biological target: Mast/stem cell growth factor receptor Kit (Homo sapiens) (UniProt P10721); assay: Inhibition of wild-type human partial length KIT (I571 to D952 residues) expressed in bacterial expression system assessed as residual activity at 1 uM by Kinomescan method relative to control
Mast/stem cell growth factor receptor Kit (Homo sapiens), sequence (P10721 whole entry, the tested form may be a part): as the sequence (P10721 whole entry, looked up, stated change not applied, the tested form may be a part) above

[15] = biological target: Serine/threonine-protein kinase 32C (Homo sapiens) (UniProt Q86UX6); assay: Inhibition of wild-type human partial length YANK3 (M68 to G486 residues) expressed in bacterial expression system assessed as residual activity at 1 uM by Kinomescan method relative to control
[16] = biological target: LIM domain kinase 2 (Homo sapiens) (UniProt P53671); assay: Inhibition of wild-type human full length LIMK2 (M1 to P638 residues) expressed in bacterial expression system assessed as residual activity at 1 uM by Kinomescan method relative to control
[17] = biological target: Serine/threonine-protein kinase Nek5 (Homo sapiens) (UniProt Q6P3R8); assay: Inhibition of wild-type human partial length NEK5 (M1 to M279 residues) expressed in bacterial expression system assessed as residual activity at 1 uM by Kinomescan method relative to control
[18] = biological target: Receptor-interacting serine/threonine-protein kinase 2 (Homo sapiens) (UniProt O43353); assay: Inhibition of wild-type human partial length RIPK2 (M1 to K310 residues) expressed in bacterial expression system assessed as residual activity at 1 uM by Kinomescan method relative to control
Homo sapiens = species on record: Homo sapiens; assay: Inhibition of human partial length FLT3 ITD/D835V double mutant expressed in bacterial expression system assessed as residual activity at 1 uM by Kinomescan method relative to control
[19] = biological target: Serine/threonine-protein kinase PLK2 (Homo sapiens) (UniProt Q9NYY3); assay: Inhibition of wild-type human partial length PLK2 (H58 to F354 residues) expressed in mammalian expression system assessed as residual activity at 1 uM by Kinomescan method relative to control
[20] = biological target: Ephrin type-A receptor 7 (Homo sapiens) (UniProt Q15375); assay: Inhibition of wild-type human partial length EPHA7 (Y608 to S912 residues) expressed in bacterial expression system assessed as residual activity at 1 uM by Kinomescan method relative to control
[21] = system: Receptor-type tyrosine-protein kinase FLT3 (Homo sapiens), P36888 [D835H]; assay: Inhibition of human partial length FLT3 D835H mutant (V592 to Y969 residues) expressed in bacterial expression system assessed as residual activity at 1 uM by Kinomescan method relative to control
[22] = system: Epidermal growth factor receptor (Homo sapiens), P00533 [UNDEFINED MUTATION]; assay: Inhibition of human partial length EGFR L747-E749del/A750P mutant expressed in bacterial expression system assessed as residual activity at 1 uM by Kinomescan method relative to control
[23] = biological target: Casein kinase I isoform epsilon (Homo sapiens) (UniProt P49674); assay: Inhibition of wild-type human full length CSNK1E (M1 to K416 residues) expressed in bacterial expression system assessed as residual activity at 1 uM by Kinomescan method relative to control
[24] = system: Epidermal growth factor receptor (Homo sapiens), P00533 [L858R,T790M]; assay: Inhibition of human partial length EGFR L858R/T790M double mutant (R669 to V1011 residues) expressed in mammalian expression system assessed as residual activity at 1 uM by Kinomescan method relative to control

Ephrin type-A receptor 5 (Homo sapiens), sequence (P54756 whole entry, the tested form may be a part): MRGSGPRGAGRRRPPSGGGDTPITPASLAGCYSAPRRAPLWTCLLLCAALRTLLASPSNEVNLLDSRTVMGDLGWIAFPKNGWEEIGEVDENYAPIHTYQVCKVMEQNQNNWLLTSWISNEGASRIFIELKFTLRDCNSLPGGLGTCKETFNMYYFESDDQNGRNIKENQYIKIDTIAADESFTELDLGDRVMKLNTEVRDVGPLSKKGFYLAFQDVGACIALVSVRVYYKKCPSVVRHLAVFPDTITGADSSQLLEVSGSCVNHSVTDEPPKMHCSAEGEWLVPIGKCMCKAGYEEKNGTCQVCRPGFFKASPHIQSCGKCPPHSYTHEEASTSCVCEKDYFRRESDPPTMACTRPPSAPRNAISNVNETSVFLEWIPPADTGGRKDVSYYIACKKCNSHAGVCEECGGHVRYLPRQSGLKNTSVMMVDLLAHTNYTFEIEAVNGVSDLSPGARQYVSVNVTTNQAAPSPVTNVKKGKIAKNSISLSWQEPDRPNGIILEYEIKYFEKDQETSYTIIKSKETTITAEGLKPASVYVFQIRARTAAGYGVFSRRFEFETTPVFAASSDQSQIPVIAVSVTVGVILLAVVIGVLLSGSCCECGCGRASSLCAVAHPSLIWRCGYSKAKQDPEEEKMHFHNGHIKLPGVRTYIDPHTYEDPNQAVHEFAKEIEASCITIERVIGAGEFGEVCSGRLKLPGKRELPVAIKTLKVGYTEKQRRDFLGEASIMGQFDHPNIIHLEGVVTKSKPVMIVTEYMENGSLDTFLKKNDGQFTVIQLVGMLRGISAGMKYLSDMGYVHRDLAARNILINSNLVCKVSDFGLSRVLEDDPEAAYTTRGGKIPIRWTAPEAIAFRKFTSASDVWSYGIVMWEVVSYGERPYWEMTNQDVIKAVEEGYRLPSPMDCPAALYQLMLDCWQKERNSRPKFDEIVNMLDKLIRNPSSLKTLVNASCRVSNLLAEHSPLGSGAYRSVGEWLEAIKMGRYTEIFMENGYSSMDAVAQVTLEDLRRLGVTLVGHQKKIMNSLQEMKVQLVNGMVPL

C=CC(=O)Nc1cc(Nc2cc(-c3cccc(NC(=O)c4ccc(C(C)(C)C)cc4)c3C)cn(C)c2=O)ccc1C(=O)N1CCOCC1
Activity [1]: 92%
Activity [2]: 90%
GI50 (Pfeiffer): 4.5 µM
Activity [3]: 100%
Activity [4]: 100%
Activity [5]: 95%
Activity [6]: 93%
Activity [7]: 83%
Activity [8]: 100%
Activity [9]: 100%
Activity [10]: 97%
Activity [11]: 96%
Activity [12]: 99%
AUC(0-inf) [13]: 34.5 ng·h/mL
Activity [14]: 98%
Activity [15]: 97%
Activity [16]: 100%
Activity [17]: 100%
Activity [18]: 62%
Activity (Homo sapiens): 100%
Activity [19]: 100%
Activity [20]: 98%
Activity [21]: 100%
Activity [22]: 94%
Activity [23]: 100%
Activity [24]: 89%
